Assay results reported in ChEMBL document CHEMBL1201862, “PubChem BioAssay data set” (2004).
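These data come from cells grown in 96-well plates and exposed to compound for 48 hours at five concentrations. At the GI50, growth is halved.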 The source made the active and inactive calls. Cut-off read from the data, not from the text of the source: active = GI50 up to about 1.1 µM and inactive = higher.

Assays:
Assay in all cases: DTP human tumour cell line panel, 48 h
U-251 = system: U-251
SNB-75 = system: SNB-75
UACC-257 = system: UACC-257
SK-MEL-28 = system: SK-MEL-28
MOLT-4 = system: MOLT-4
OVCAR-5 = system: OVCAR-5
EKVX = system: EKVX
TK-10 = system: TK-10
SK-MEL-2 = system: SK-MEL-2
K562 = system: K562
NCI-H522 = system: NCI-H522
Hs-578T = system: Hs-578T
SK-MEL-5 = system: SK-MEL-5
IGROV-1 = system: IGROV-1
MDA-MB-435 = system: MDA-MB-435
SNB-19 = system: SNB-19
OVCAR-8 = system: OVCAR-8
RXF 393 = system: RXF 393
HL-60 = system: HL-60
UO-31 = system: UO-31

Measured: GI50

COc1c2ccoc2cc2oc(=O)ccc12 [BERGAPTEN]
inactive: U-251 67.9 µM | SNB-75 89.1 µM | UACC-257 > 100 µM | SK-MEL-28 > 100 µM | MOLT-4 > 100 µM | OVCAR-5 > 100 µM | EKVX 18.7 µM | TK-10 > 100 µM | SK-MEL-2 > 100 µM | K562 > 100 µM | NCI-H522 > 100 µM | Hs-578T 65.5 µM | SK-MEL-5 > 100 µM | IGROV-1 > 100 µM | MDA-MB-435 > 100 µM | SNB-19 > 100 µM | OVCAR-8 > 100 µM | RXF 393 > 100 µM | HL-60 > 100 µM

C[C@@H](CCO)OC1OC(COC(=O)C(C)(C)C)C(OC(=O)C(C)(C)C)C(OC(=O)C(C)(C)C)C1OC(=O)C(C)(C)C (stereo partly specified)
inactive: U-251 16.7 µM | SNB-75 32.1 µM | UACC-257 25.5 µM | SK-MEL-28 21.9 µM | MOLT-4 12.9 µM | OVCAR-5 > 100 µM | EKVX 48.4 µM | TK-10 50.7 µM | SK-MEL-2 43.6 µM | K562 89.7 µM | NCI-H522 11.7 µM | Hs-578T 20.7 µM | SK-MEL-5 4.97 µM | IGROV-1 28.2 µM | MDA-MB-435 34.5 µM | SNB-19 12.6 µM | OVCAR-8 96.8 µM | RXF 393 7.46 µM | HL-60 5.89 µM

Fc1ccc(C2NC(=S)NC3=C2CCOc2c3ccc3ccccc23)cc1 (stereo unspecified)
inactive: UO-31 26.7 µM | SNB-75 13.6 µM | UACC-257 53.8 µM | MOLT-4 19.9 µM | OVCAR-5 94.6 µM | EKVX 51.9 µM | TK-10 44.9 µM | SK-MEL-2 79.6 µM | K562 3.39 µM | NCI-H522 35 µM | Hs-578T 42.1 µM | SK-MEL-5 11.3 µM | IGROV-1 47.1 µM | MDA-MB-435 8.53 µM | SNB-19 55.1 µM | OVCAR-8 > 100 µM | RXF 393 14.8 µM | HL-60 19 µM

CCOc1ccc(/C=C2\N=C(c3ccc([N+](=O)[O-])cc3)OC2=O)cc1
inactive: U-251 > 100 µM | SNB-75 > 100 µM | UACC-257 > 100 µM | SK-MEL-28 > 100 µM | MOLT-4 > 100 µM | OVCAR-5 > 100 µM | EKVX > 100 µM | TK-10 > 100 µM | SK-MEL-2 > 100 µM | K562 > 100 µM | NCI-H522 > 100 µM | Hs-578T > 100 µM | SK-MEL-5 > 100 µM | IGROV-1 > 100 µM | MDA-MB-435 > 100 µM | SNB-19 > 100 µM | OVCAR-8 > 100 µM | RXF 393 > 100 µM | HL-60 > 100 µM

Cc1cccc2[nH]c3c(c(O)cc4[nH]c5cccc(C)c5c(=O)c43)c(=O)c12
inactive: U-251 3.3 µM | SNB-75 > 10 µM | UACC-257 4.55 µM | SK-MEL-28 > 10 µM | MOLT-4 3.88 µM | OVCAR-5 > 10 µM | EKVX 6.53 µM | TK-10 5.08 µM | SK-MEL-2 > 10 µM | K562 4.02 µM | NCI-H522 > 10 µM | Hs-578T 7.19 µM | SK-MEL-5 9.04 µM | IGROV-1 5.74 µM | MDA-MB-435 4.89 µM | SNB-19 > 10 µM | OVCAR-8 6.11 µM | RXF 393 7 µM | HL-60 3.33 µM

Nc1nccc(NCC2(CO)CC(OCc3ccccc3)C2)n1 (stereo unspecified)
inactive: U-251 > 100 µM | UO-31 84.5 µM | SNB-75 > 100 µM | UACC-257 > 100 µM | SK-MEL-28 > 100 µM | MOLT-4 > 100 µM | OVCAR-5 > 100 µM | EKVX 77.4 µM | SK-MEL-2 > 100 µM | K562 79.1 µM | NCI-H522 98.9 µM | Hs-578T > 100 µM | SK-MEL-5 35.8 µM | IGROV-1 > 100 µM | MDA-MB-435 > 100 µM | OVCAR-8 > 100 µM | RXF 393 > 100 µM | HL-60 > 100 µM

COc1ccc2c3c([nH]c2c1)[C@H](C=C(C)C)N1C(=O)[C@@H]2CCCN2C(=O)[C@@H]1C3 [FUMITREMORGIN]
inactive: U-251 73.1 µM | UO-31 > 100 µM | SNB-75 21.7 µM | UACC-257 > 100 µM | SK-MEL-28 22.2 µM | MOLT-4 > 100 µM | OVCAR-5 > 100 µM | EKVX > 100 µM | TK-10 29.1 µM | SK-MEL-2 > 100 µM | K562 > 100 µM | NCI-H522 > 100 µM | Hs-578T 50.9 µM | IGROV-1 > 100 µM | MDA-MB-435 > 100 µM | SNB-19 > 100 µM | OVCAR-8 64.4 µM | RXF 393 38.1 µM | HL-60 > 100 µM
